± gives the expanded uncertainty stated by the source.
Assay: xn = mol fraction of the nth substance listed
Conditions: for surface tension liquid-gas: Capillary rise; for viscosity / mass density: 100.8 kPa, Liquid; for viscosity: Falling or rolling sphere viscometry; for mass density: Vibrating tube method

OCc1ccccc1 [benzenemethanol] + CCO
Conditions	mass density [kg/m3]	surface tension liquid-gas [mN/m]	viscosity [mPa·s]
293.15 K, x2 = 0	1045.44 ± 0.19	39.2 ± 0.4	6.287 ± 0.054
293.15 K, x2 = 0.05	1038.93 ± 0.18	38.7 ± 0.4	5.903 ± 0.051
293.15 K, x2 = 0.1	1032.01 ± 0.18	38.1 ± 0.4	5.548 ± 0.048
293.15 K, x2 = 0.1504	1024.72 ± 0.18	37.5 ± 0.4	5.197 ± 0.044
293.15 K, x2 = 0.1999	1017.09 ± 0.18	36.8 ± 0.4	4.871 ± 0.042
293.15 K, x2 = 0.2502	1008.95 ± 0.18	36.1 ± 0.4	4.55 ± 0.039
293.15 K, x2 = 0.3003	1000.31 ± 0.18	35.3 ± 0.4	4.236 ± 0.037
293.15 K, x2 = 0.3499	991.24 ± 0.18	34.5 ± 0.4	3.94 ± 0.035
293.15 K, x2 = 0.3998	981.52 ± 0.19	33.6 ± 0.4	3.655 ± 0.033
293.15 K, x2 = 0.45	971.12 ± 0.2	32.7 ± 0.4	3.377 ± 0.031
293.15 K, x2 = 0.5001	960.01 ± 0.21	31.8 ± 0.4	3.107 ± 0.029
293.15 K, x2 = 0.55	948.23 ± 0.21	30.9 ± 0.4	2.857 ± 0.027
293.15 K, x2 = 0.5999	935.57 ± 0.2	29.9 ± 0.4	2.623 ± 0.026
293.15 K, x2 = 0.65	921.93 ± 0.2	28.9 ± 0.4	2.392 ± 0.024
293.15 K, x2 = 0.6997	907.34 ± 0.2	28 ± 0.4	2.169 ± 0.023
293.15 K, x2 = 0.75	891.49 ± 0.2	27.1 ± 0.4	1.971 ± 0.022
293.15 K, x2 = 0.7999	874.42 ± 0.19	26.1 ± 0.4	1.782 ± 0.021
293.15 K, x2 = 0.8496	855.94 ± 0.19	25.2 ± 0.4	1.611 ± 0.02
293.15 K, x2 = 0.8998	835.44 ± 0.19	24.3 ± 0.4	1.454 ± 0.019
293.15 K, x2 = 0.95	813.26 ± 0.19	23.3 ± 0.4	1.305 ± 0.019
303.15 K, x2 = 0	1037.45 ± 0.18	38.1 ± 0.4	4.579 ± 0.041
303.15 K, x2 = 0.05	1030.91 ± 0.18	37.5 ± 0.4	4.276 ± 0.038
303.15 K, x2 = 0.1	1024.02 ± 0.18	36.9 ± 0.4	4.006 ± 0.036
303.15 K, x2 = 0.1504	1016.76 ± 0.18	36.2 ± 0.4	3.761 ± 0.034
303.15 K, x2 = 0.1999	1009.06 ± 0.18	35.5 ± 0.4	3.529 ± 0.033
303.15 K, x2 = 0.2502	1000.9 ± 0.18	34.8 ± 0.4	3.321 ± 0.031
303.15 K, x2 = 0.3003	992.29 ± 0.18	34.1 ± 0.4	3.117 ± 0.03
303.15 K, x2 = 0.3499	983.16 ± 0.18	33.3 ± 0.4	2.924 ± 0.028
303.15 K, x2 = 0.3998	973.34 ± 0.19	32.5 ± 0.4	2.735 ± 0.027
303.15 K, x2 = 0.45	962.91 ± 0.2	31.6 ± 0.4	2.542 ± 0.026
303.15 K, x2 = 0.5001	951.76 ± 0.21	30.7 ± 0.4	2.368 ± 0.025
303.15 K, x2 = 0.55	939.95 ± 0.21	29.8 ± 0.4	2.206 ± 0.023
303.15 K, x2 = 0.5999	927.33 ± 0.2	28.8 ± 0.4	2.03 ± 0.022
303.15 K, x2 = 0.65	913.64 ± 0.2	27.8 ± 0.4	1.873 ± 0.022
303.15 K, x2 = 0.6997	898.99 ± 0.2	26.9 ± 0.4	1.716 ± 0.021
303.15 K, x2 = 0.75	883.14 ± 0.2	26 ± 0.4	1.568 ± 0.02
303.15 K, x2 = 0.7999	865.99 ± 0.2	25.1 ± 0.4	1.423 ± 0.019
303.15 K, x2 = 0.8496	847.51 ± 0.19	24.2 ± 0.4	1.292 ± 0.019
303.15 K, x2 = 0.8998	827.13 ± 0.19	23.3 ± 0.4	1.173 ± 0.018
303.15 K, x2 = 0.95	805.04 ± 0.19	22.3 ± 0.4	1.06 ± 0.018
313.15 K, x2 = 0	1029.61 ± 0.18	37.2 ± 0.4	3.335 ± 0.031
313.15 K, x2 = 0.05	1023.04 ± 0.18	36.6 ± 0.4	3.171 ± 0.03
313.15 K, x2 = 0.1	1016.21 ± 0.18	35.9 ± 0.4	3.002 ± 0.029
313.15 K, x2 = 0.1504	1008.86 ± 0.18	35.3 ± 0.4	2.841 ± 0.028
313.15 K, x2 = 0.1999	1001.16 ± 0.18	34.6 ± 0.4	2.688 ± 0.027
313.15 K, x2 = 0.2502	992.96 ± 0.18	33.9 ± 0.4	2.539 ± 0.026
313.15 K, x2 = 0.3003	984.28 ± 0.18	33.2 ± 0.4	2.389 ± 0.025
313.15 K, x2 = 0.3499	975.05 ± 0.19	32.4 ± 0.4	2.244 ± 0.024
313.15 K, x2 = 0.3998	965.24 ± 0.19	31.6 ± 0.4	2.101 ± 0.023
313.15 K, x2 = 0.45	954.84 ± 0.2	30.7 ± 0.4	1.955 ± 0.022
313.15 K, x2 = 0.5001	943.67 ± 0.21	29.8 ± 0.4	1.819 ± 0.021
313.15 K, x2 = 0.55	931.78 ± 0.21	28.9 ± 0.4	1.684 ± 0.021
313.15 K, x2 = 0.5999	919.04 ± 0.21	27.9 ± 0.4	1.561 ± 0.02
313.15 K, x2 = 0.65	905.41 ± 0.2	26.9 ± 0.4	1.441 ± 0.019
313.15 K, x2 = 0.6997	890.69 ± 0.2	26 ± 0.4	1.332 ± 0.019
313.15 K, x2 = 0.75	874.75 ± 0.2	25.1 ± 0.4	1.236 ± 0.019
313.15 K, x2 = 0.7999	857.51 ± 0.2	24.2 ± 0.4	1.146 ± 0.018
313.15 K, x2 = 0.8496	838.83 ± 0.2	23.3 ± 0.4	1.048 ± 0.018
313.15 K, x2 = 0.8998	818.48 ± 0.19	22.4 ± 0.4	0.972 ± 0.018
313.15 K, x2 = 0.95	796.32 ± 0.19	21.5 ± 0.4	0.899 ± 0.017
323.15 K, x2 = 0	1021.5 ± 0.18	36.3 ± 0.4	2.545 ± 0.026
323.15 K, x2 = 0.05	1014.86 ± 0.18	35.6 ± 0.4	2.439 ± 0.025
323.15 K, x2 = 0.1	1007.98 ± 0.18	34.9 ± 0.4	2.337 ± 0.025
323.15 K, x2 = 0.1504	1000.57 ± 0.18	34.2 ± 0.4	2.238 ± 0.024
323.15 K, x2 = 0.1999	992.89 ± 0.18	33.5 ± 0.4	2.142 ± 0.023
323.15 K, x2 = 0.2502	984.67 ± 0.18	32.8 ± 0.4	2.041 ± 0.023
323.15 K, x2 = 0.3003	975.99 ± 0.18	32.1 ± 0.4	1.941 ± 0.022
323.15 K, x2 = 0.3499	966.71 ± 0.19	31.3 ± 0.4	1.844 ± 0.021
323.15 K, x2 = 0.3998	956.84 ± 0.19	30.5 ± 0.4	1.746 ± 0.021
323.15 K, x2 = 0.45	946.37 ± 0.2	29.6 ± 0.4	1.649 ± 0.02
323.15 K, x2 = 0.5001	935.23 ± 0.21	28.7 ± 0.4	1.556 ± 0.02
323.15 K, x2 = 0.55	923.28 ± 0.21	27.8 ± 0.4	1.462 ± 0.019
323.15 K, x2 = 0.5999	910.48 ± 0.21	26.8 ± 0.4	1.368 ± 0.019
323.15 K, x2 = 0.65	896.61 ± 0.21	25.8 ± 0.4	1.279 ± 0.019
323.15 K, x2 = 0.6997	881.89 ± 0.2	24.8 ± 0.4	1.189 ± 0.018
323.15 K, x2 = 0.75	865.88 ± 0.2	23.9 ± 0.4	1.105 ± 0.018
323.15 K, x2 = 0.7999	848.64 ± 0.2	23 ± 0.4	1.022 ± 0.018
323.15 K, x2 = 0.8496	830.07 ± 0.2	22.1 ± 0.4	0.937 ± 0.017
323.15 K, x2 = 0.8998	809.62 ± 0.2	21.2 ± 0.4	0.854 ± 0.017
323.15 K, x2 = 0.95	787.41 ± 0.2	20.3 ± 0.4	0.774 ± 0.017

Source: the NIST ThermoML archive (doi:10.1021/je201009c)
